How the values were obtained:
KM12 = experiment: cells; format: cell-based; settings: Homo sapiens; KM12; 10 μM; read-out: growth inhibition % (GI%)
LOX IMIV = experiment: cells; format: cell-based; settings: Homo sapiens, 60 cell; LOX IMIV; 10 μM; read-out: growth inhibition % (GI%)
SN12C = experiment: cells; format: cell-based; settings: Homo sapiens, 10 μM, read-out: growth inhibition % (GI%)
HL-60(TB) = experiment: cells; format: cell-based; settings: Homo sapiens; HL-60(TB); 10 μM; read-out: growth inhibition % (GI%)
OVCAR-5 = experiment: cells; format: cell-based; settings: Homo sapiens; OVCAR-5; 10 μM; read-out: growth inhibition % (GI%)
MCF7 = experiment: cells; format: cell-based; settings: Homo sapiens; MCF7; 10 μM; read-out: growth inhibition % (GI%)
A498 = experiment: cells; format: cell-based; settings: Homo sapiens; A498; 10 μM; read-out: growth inhibition % (GI%)
BT-549 = experiment: cells; format: cell-based; settings: Homo sapiens; BT-549; 10 μM; read-out: growth inhibition % (GI%)
NCI-H322M = experiment: cells; format: cell-based; settings: Homo sapiens, 10 μM, read-out: growth inhibition % (GI%)
[1] = tested on: panel of 60 tumour cell lines; experiment: NCI 60 cell line antiproliferative screening (SRB), whole panel or subpanels (means, ranges, words); format: cell-based, human; settings: for antiproliferative activity against all tested cell lines: 10 μM single dose; for inhibition at 10 µM: Homo sapiens, 60 cell, mean over the cell line panel, read-out: Mean growth inhibition % (mean GI%)
T-47D = experiment: cells; format: cell-based; settings: Homo sapiens, T47D; T-47D; 10 μM; read-out: growth inhibition % (GI%)
HOP-62 = experiment: cells; format: cell-based; settings: Homo sapiens; HOP-62; 10 μM; read-out: growth inhibition % (GI%)
SK-OV-3 = experiment: cells; format: cell-based; settings: Homo sapiens; SK-OV-3; 10 μM; read-out: growth inhibition % (GI%)
SNB-19 = experiment: cells; format: cell-based; settings: Homo sapiens; SNB-19; 10 μM; read-out: growth inhibition % (GI%)
IGROV1 = experiment: cells; format: cell-based; settings: Homo sapiens, IGROV-1; IGROV1; 10 μM; read-out: growth inhibition % (GI%)
DU-145 = experiment: cells; format: cell-based; settings: Homo sapiens; DU-145; 10 μM; read-out: growth inhibition % (GI%)
SK-MEL-2 = experiment: cells; format: cell-based; settings: Homo sapiens; SK-MEL-2; 10 μM; read-out: growth inhibition % (GI%)
NCI-H226 = experiment: cells; format: cell-based; settings: Homo sapiens; NCI-H226; 10 μM; read-out: growth inhibition % (GI%)
NCI-H460 = experiment: cells; format: cell-based; settings: Homo sapiens; NCI-H460; 10 μM; read-out: growth inhibition % (GI%)
A549/ATCC = experiment: cells; format: cell-based; settings: Homo sapiens; A549/ATCC; 10 μM; read-out: growth inhibition % (GI%)
PC-3 = experiment: cells; format: cell-based; settings: Homo sapiens; PC-3; 10 μM; read-out: growth inhibition % (GI%)
UACC-257 = experiment: cells; format: cell-based; settings: Homo sapiens; UACC-257; 10 μM; read-out: growth inhibition % (GI%)
HOP-92 = experiment: cells; format: cell-based; settings: Homo sapiens; HOP-92; 10 μM; read-out: growth inhibition % (GI%)
U251 = experiment: cells; format: cell-based; settings: Homo sapiens, U-251; U251; 10 μM; read-out: growth inhibition % (GI%)
SF-539 = experiment: cells; format: cell-based; settings: Homo sapiens; SF-539; 10 μM; read-out: growth inhibition % (GI%)
MDA-MB-468 = experiment: NCI 60 cell line antiproliferative screening (SRB), Breast cancer; settings: Homo sapiens, MDA-MB-468, read-out: growth inhibition % (GI%)
HCT-116 = experiment: cells; format: cell-based; settings: Homo sapiens; HCT-116; 10 μM; read-out: growth inhibition % (GI%)
TK-10 = experiment: cells; format: cell-based; settings: Homo sapiens; TK-10; 10 μM; read-out: growth inhibition % (GI%)
OVCAR-3 = experiment: NCI 60 cell line antiproliferative screening (SRB), Ovarian cancer; settings: Homo sapiens, OVCAR-3, read-out: growth inhibition % (GI%)
COLO-205 = experiment: cells; format: cell-based; settings: Homo sapiens; COLO-205; 10 μM; read-out: growth inhibition % (GI%)
NCI/ADR-RES = experiment: cells; format: cell-based; settings: Homo sapiens, 10 μM, read-out: growth inhibition % (GI%)
SF-295 = experiment: cells; format: cell-based; settings: Homo sapiens; SF-295; 10 μM; read-out: growth inhibition % (GI%)
OVCAR-8 = experiment: cells; format: cell-based; settings: Homo sapiens; OVCAR-8; 10 μM; read-out: growth inhibition % (GI%)
HCT-15 = experiment: cells; format: cell-based; settings: Homo sapiens; HCT-15; 10 μM; read-out: growth inhibition % (GI%)
786-0 = experiment: cells; format: cell-based; settings: Homo sapiens; 786-0; 10 μM; read-out: growth inhibition % (GI%)
MOLT-4 = experiment: cells; format: cell-based; settings: Homo sapiens; MOLT-4; 10 μM; read-out: growth inhibition % (GI%)
ACHN = experiment: cells; format: cell-based; settings: Homo sapiens, 10 μM, read-out: growth inhibition % (GI%)
EKVX = experiment: cells; format: cell-based; settings: Homo sapiens, 10 μM, read-out: growth inhibition % (GI%)
SF-268 = experiment: cells; format: cell-based; settings: Homo sapiens; SF-268; 10 μM; read-out: growth inhibition % (GI%)
NCI-H522 = experiment: cells; format: cell-based; settings: Homo sapiens; NCI-H522; 10 μM; read-out: growth inhibition % (GI%)
CCRF-CEM = experiment: cells; format: cell-based; settings: Homo sapiens, 10 μM, read-out: growth inhibition % (GI%)
SK-MEL-5 = experiment: cells; format: cell-based; settings: Homo sapiens; SK-MEL-5; 10 μM; read-out: growth inhibition % (GI%)
OVCAR-4 = experiment: cells; format: cell-based; settings: Homo sapiens; OVCAR-4; 10 μM; read-out: growth inhibition % (GI%)
MALME-3M = experiment: cells; format: cell-based; settings: Homo sapiens; MALME-3M; 10 μM; read-out: growth inhibition % (GI%)
HCC-2998 = experiment: cells; format: cell-based; settings: Homo sapiens; HCC-2998; 10 μM; read-out: growth inhibition % (GI%)
SNB-75 = experiment: cells; format: cell-based; settings: Homo sapiens; SNB-75; 10 μM; read-out: growth inhibition % (GI%)

O=C(CSc1nc2ccccc2c(=O)n1-c1ccc(Cl)cc1)NN=Cc1ccc(N2CCOCC2)cc1 [6k, 2-((3–(4-chlorophenyl)-4-oxo-3,4-dihydroquinazolin-2-yl)thio)-N'-(4-morpholinobenzylidene) acetohydrazide]
inhibition at 10 µM (KM12): < 15%
inhibition at 10 µM (LOX IMIV): < 15%
inhibition at 10 µM (SN12C): < 15%
inhibition at 10 µM (HL-60(TB)): < 15%
inhibition at 10 µM (OVCAR-5): < 15%
inhibition at 10 µM (MCF7): < 15%
inhibition at 10 µM (A498): < 15%
inhibition at 10 µM (BT-549): < 15%
inhibition at 10 µM (NCI-H322M): < 15%
antiproliferative activity against all tested cell lines [1]: did not show activity
inhibition at 10 µM [1]: < 0%
inhibition at 10 µM (T-47D): < 15%
inhibition at 10 µM (HOP-62): < 15%
inhibition at 10 µM (SK-OV-3): < 15%
inhibition at 10 µM (SNB-19): < 15%
inhibition at 10 µM (IGROV1): < 15%
inhibition at 10 µM (DU-145): < 15%
inhibition at 10 µM (SK-MEL-2): < 15%
inhibition at 10 µM (NCI-H226): < 15%
inhibition at 10 µM (NCI-H460): < 15%
inhibition at 10 µM (A549/ATCC): < 15%
inhibition at 10 µM (PC-3): < 15%
inhibition at 10 µM (UACC-257): < 15%
inhibition at 10 µM (HOP-92): < 15%
inhibition at 10 µM (U251): < 15%
inhibition at 10 µM (SF-539): < 15%
inhibition at 10 µM (MDA-MB-468): < 15%
inhibition at 10 µM (HCT-116): < 15%
inhibition at 10 µM (TK-10): < 15%
inhibition at 10 µM (OVCAR-3): < 15%
inhibition at 10 µM (COLO-205): < 15%
inhibition at 10 µM (NCI/ADR-RES): < 15%
inhibition at 10 µM (SF-295): < 15%
inhibition at 10 µM (OVCAR-8): < 15%
inhibition at 10 µM (HCT-15): < 15%
inhibition at 10 µM (786-0): < 15%
inhibition at 10 µM (MOLT-4): < 15%
inhibition at 10 µM (ACHN): < 15%
inhibition at 10 µM (EKVX): < 15%
inhibition at 10 µM (SF-268): < 15%
inhibition at 10 µM (NCI-H522): < 15%
inhibition at 10 µM (CCRF-CEM): < 15%
inhibition at 10 µM (SK-MEL-5): < 15%
inhibition at 10 µM (OVCAR-4): < 15%
inhibition at 10 µM (MALME-3M): < 15%
inhibition at 10 µM (HCC-2998): < 15%
inhibition at 10 µM (SNB-75): < 15%

CN1CCN(c2ccc(C=NNC(=O)CSc3nc4ccccc4c(=O)n3-c3ccc(Cl)cc3)cc2)CC1 [6l, 2-((3–(4-chlorophenyl)-4-oxo-3,4-dihydroquinazolin-2-yl)thio)-N'-(4–(4-methylpiperazin-1-yl)benzylidene)acetohydrazide]
inhibition at 10 µM (KM12): < 15%
inhibition at 10 µM (LOX IMIV): 15.2%
inhibition at 10 µM (SN12C): < 15%
inhibition at 10 µM (HL-60(TB)): < 15%
inhibition at 10 µM (OVCAR-5): < 15%
inhibition at 10 µM (MCF7): < 15%
inhibition at 10 µM (A498): 32.6%
inhibition at 10 µM (BT-549): < 15%
inhibition at 10 µM (NCI-H322M): < 15%
antiproliferative activity against all tested cell lines [1]: did not show activity
inhibition at 10 µM [1]: < 0%
inhibition at 10 µM (T-47D): < 15%
inhibition at 10 µM (HOP-62): < 15%
inhibition at 10 µM (SK-OV-3): < 15%
inhibition at 10 µM (SNB-19): < 15%
inhibition at 10 µM (IGROV1): < 15%
inhibition at 10 µM (DU-145): < 15%
inhibition at 10 µM (SK-MEL-2): < 15%
inhibition at 10 µM (NCI-H226): < 15%
inhibition at 10 µM (NCI-H460): < 15%
inhibition at 10 µM (A549/ATCC): < 15%
inhibition at 10 µM (PC-3): < 15%
inhibition at 10 µM (UACC-257): < 15%
inhibition at 10 µM (HOP-92): < 15%
inhibition at 10 µM (U251): < 15%
inhibition at 10 µM (SF-539): < 15%
inhibition at 10 µM (MDA-MB-468): < 15%
inhibition at 10 µM (HCT-116): < 15%
inhibition at 10 µM (TK-10): < 15%
inhibition at 10 µM (OVCAR-3): < 15%
inhibition at 10 µM (COLO-205): < 15%
inhibition at 10 µM (NCI/ADR-RES): < 15%
inhibition at 10 µM (SF-295): < 15%
inhibition at 10 µM (OVCAR-8): < 15%
inhibition at 10 µM (HCT-15): < 15%
inhibition at 10 µM (786-0): < 15%
inhibition at 10 µM (MOLT-4): < 15%
inhibition at 10 µM (ACHN): < 15%
inhibition at 10 µM (EKVX): < 15%
inhibition at 10 µM (SF-268): < 15%
inhibition at 10 µM (NCI-H522): < 15%
inhibition at 10 µM (CCRF-CEM): < 15%
inhibition at 10 µM (SK-MEL-5): < 15%
inhibition at 10 µM (OVCAR-4): < 15%
inhibition at 10 µM (MALME-3M): < 15%
inhibition at 10 µM (HCC-2998): < 15%
inhibition at 10 µM (SNB-75): < 15%
